Assay results taken from patent US6709864B1, “Adipogenic differentiation of human mesenchymal stem cells” (Osiris Therapeutics, Inc., priority 1996, dated 2004).

How the values were obtained:
[1] = test system: human mesenchymal stem cells; assay: Nile Red / DAPI fluorescence plate reader assay of adipogenic differentiation of hMSCs; assay type: cell-based
Method: These experiments were performed to determine the effect of adding varying concentrations of indomethacin to mesenchymal stem cells in culture to induce adipogenic differentiation. […] We also tested indomethacin under the same conditions however in the absence of methyl isobutylxanthine. The results were compared visually by observing the accumulation of lipid within the cells and by staining the lipid with the fluorescent lipid-soluble dye Nile Red and reading on a fluorescence plate reader as described in Example 6. These experiments were performed to determine the effect of adding varying concentrations of 15-deoxy Δ^12,14 -prostaglandin J2 (15d-PGJ2) to […] in culture to induce adipogenic differentiation. […] We also tested 15d-PGJ2 under the same conditions without methyl isobutylxanthine present. hMSCs were grown in 12 or 24 well tissue culture plates and were treated with adipogenic inducing agents as described above when the cells were post-confluent. After three treatments, the cells were allowed to accumulate lipid for an additional week prior to analysis. The cell layers were rinsed with Dulbecco's modified PBS (D.PBS) and fixed for 30 minutes in 10% Neutral Buffered Formalin. The plates were then rinsed with D. PBS and incubated for 30 minutes with 0.02% Saponin, 0.8 μg/ml DAPI (from an aqueous 2 mg/ml stock) and 1 μg/ml Nile Red (from a 1 mg/ml stock in acetone) in D. PBS. Plates were then rinsed three times with D.PBS.

[2] = test system: human mesenchymal stem cells; assay: Adipogenesis assay of hMSCs, lipid vacuoles observed by microscopy / Oil Red O; assay type: cell-based; details: methyl isobutylxanthine alone in normal hMSC media during induction, then 14 days Adipogenic Maintenance Media
Method: Human MSCs are isolated from the red bone marrow of volunteer donors as described in U.S. Pat. No.5,486,359. The cells are grown until colonies are well established and at this point the cells are subcultured (1 to 3) or they can be taken to assay for in vitro adipogenesis. For the adipogenesis assay, hMSCs are subcultured into 35 mm tissue culture dishes at 100,000 cells per dish and fed with 2 milliliters normal hMSC Media (Dulbecco's Modified Eagle's Media (DMEM), 10% selected Fetal Bovine Serum (FBS) and antibiotic/antimycotic mixture (IX) (Life Technologies, Inc.)) and cells are maintained at 37° C., 5% CO2 and 90% humidity. The cells are refed with the fresh media every third day and are allowed to multiply and become confluent. The cells are maintained after reaching confluence by refeeding every third day and this time period of post confluence culturing enhances the adipogenic response in the next step (at least out to 14 days). The differentiation into adipocytes is initiated by changing the media to 2 ml of Adipogenic Induction Media (DMEM with 10% fetal bovine serum containing 10 μg/ml insulin (human recombinant, Boehringer Mannheim Corp.), 0.5 mM methyl isobutylxanthine (MIX)(Sigma Chemical Co.), 1 μM dexamethasone (Dex)(Sigma Chemical Co.)). […]

[3] = 1 μM 15d-PGJ2 with insulin only (I)
[4] = 10 μM 15d-PGJ2 with insulin only (I)
[5] = 50 μM indomethacin in DI (no MIX)
[6] = 50 μM indomethacin with insulin only (I)
[7] = 100 μM indomethacin in DI (no MIX)
[8] = 100 μM indomethacin with insulin only (I)
[9] = 200 μM indomethacin in DI (no MIX)
[10] = 200 μM indomethacin with insulin only (I)

`CCCCC/C=C/C=C1/C(=O)C=C[C@@H]1C/C=C\CCCC(=O)O` [15d-PGJ2, 15-deoxy Δ^12,14-prostaglandin J2] was tested, and the “DAPI (cor)” value ([1]; 1 μM 15d-PGJ2 in DI (no MIX)) was 5.99 relative fluorescence intensity, the “Nile red (cor)” value ([1]; 1 μM 15d-PGJ2 in DI (no MIX)) was 1.19 relative fluorescence intensity and the “Nile red/DAPI” value ([1]; 1 μM 15d-PGJ2 in DI (no MIX)) was 0.20. The “DAPI (cor)” value ([1]; 1 μM 15d-PGJ2 in MDI) was 6.53 relative fluorescence intensity, the “Nile red (cor)” value ([1]; 1 μM 15d-PGJ2 in MDI) was 13.16 relative fluorescence intensity and the “Nile red/DAPI” value ([1]; 1 μM 15d-PGJ2 in MDI) was 2.02. For the same compound, the “DAPI (cor)” value [1, 3] was 4.98 relative fluorescence intensity, the “Nile red (cor)” value [1, 3] was 0.83 relative fluorescence intensity and the “Nile red/DAPI” value [1, 3] was 0.17. The “DAPI (cor)” value ([1]; 10 μM 15d-PGJ2 in MDI) was 7.22 relative fluorescence intensity, the “Nile red (cor)” value ([1]; 10 μM 15d-PGJ2 in MDI) was 17.56 relative fluorescence intensity and the “Nile red/DAPI” value ([1]; 10 μM 15d-PGJ2 in MDI) was 2.43. The “DAPI (cor)” value [1, 4] was 5.75 relative fluorescence intensity, the “Nile red (cor)” value [1, 4] was 0.85 relative fluorescence intensity and the “Nile red/DAPI” value [1, 4] was 0.15. The adipogenic response ([1]; 15d-PGJ2 1 or 10 μM in MDI induction medium) was “dose dependent increase”, the “adipogenic effectiveness compared with indomethacin” value ([1]; 15d-PGJ2 at 10 μM added to MDI medium) was “nearly as effective as indomethacin” and the effect on adipogenesis ([1]; 15d-PGJ2 with insulin alone) was “no significant effect”. The “DAPI (cor)” value ([1]; DI + 10 15d-PGJ2 (no MIX)) was 5.36 relative fluorescence intensity, the “Nile red (cor)” value ([1]; DI + 10 15d-PGJ2 (no MIX)) was 2.57 relative fluorescence intensity and the “Nile red/DAPI” value ([1]; DI + 10 15d-PGJ2 (no MIX)) was 0.48. For the same compound, the adipogenic response ([1]; DI + 15d-PGJ2) was “weak adipogenic response”.

For `COc1ccc2c(c1)c(CC(=O)O)c(C)n2C(=O)c1ccc(Cl)cc1` [indomethacin], the “DAPI (cor)” value [1, 5] was 6.66 relative fluorescence intensity, the “Nile red (cor)” value [1, 5] was 3.11 relative fluorescence intensity and the “Nile red/DAPI” value [1, 5] was 0.47. The “DAPI (cor)” value ([1]; 50 μM indomethacin in MDI) was 7.8 relative fluorescence intensity, the “Nile red (cor)” value ([1]; 50 μM indomethacin in MDI) was 11.72 relative fluorescence intensity and the “Nile red/DAPI” value ([1]; 50 μM indomethacin in MDI) was 1.50. For the same compound, the “DAPI (cor)” value [1, 6] was 5.12 relative fluorescence intensity, the “Nile red (cor)” value [1, 6] was 0.64 relative fluorescence intensity and the “Nile red/DAPI” value [1, 6] was 0.13. For the same compound, the “DAPI (cor)” value [1, 7] was 6.77 relative fluorescence intensity, the “Nile red (cor)” value [1, 7] was 5.35 relative fluorescence intensity and the “Nile red/DAPI” value [1, 7] was 0.79. The “DAPI (cor)” value ([1]; 100 μM indomethacin in MDI) was 7.11 relative fluorescence intensity, the “Nile red (cor)” value ([1]; 100 μM indomethacin in MDI) was 16.39 relative fluorescence intensity and the “Nile red/DAPI” value ([1]; 100 μM indomethacin in MDI) was 2.31. The “DAPI (cor)” value [1, 8] was 5.81 relative fluorescence intensity, the “Nile red (cor)” value [1, 8] was 0.74 relative fluorescence intensity and the “Nile red/DAPI” value [1, 8] was 0.13. For the same compound, the “DAPI (cor)” value [1, 9] was 6.03 relative fluorescence intensity, the “Nile red (cor)” value [1, 9] was 10.08 relative fluorescence intensity and the “Nile red/DAPI” value [1, 9] was 1.67. For the same compound, the “DAPI (cor)” value ([1]; 200 μM indomethacin in MDI) was 8.72 relative fluorescence intensity, the “Nile red (cor)” value ([1]; 200 μM indomethacin in MDI) was 20.27 relative fluorescence intensity and the “Nile red/DAPI” value ([1]; 200 μM indomethacin in MDI) was 2.32. For the same compound, the “DAPI (cor)” value [1, 10] was 5.28 relative fluorescence intensity, the “Nile red (cor)” value [1, 10] was 0.74 relative fluorescence intensity and the “Nile red/DAPI” value [1, 10] was 0.14. For the same compound, the “commitment of hMSCs to adipocyte lineage and intracellular lipid accumulation” value ([1]; indomethacin 50-200 μM in MDI induction medium) was “dose dependent increase”, the hMSCs becoming adipocytes ([1]; indomethacin at 200 μM in MDI) was ~100% and the “Nile Red staining relative to MDI sample alone” value ([1]; indomethacin at 200 μM in MDI, fluorescent plate reader) was “nearly three times that of the MDI sample alone”. The “adipogenic differentiation level relative to MDI+indomethacin” value ([1]; indomethacin in DMEM with dexamethasone and insulin only (DI)) was “approximately half that of the MDI+indomethacin sample” and the “effect on hMSC adipogenesis” value ([1]; indomethacin with insulin) was “no significant effect”.

In the case of `CC(C)Cn1c(=O)n(C)c(=O)c2[nH]cnc21` [methyl isobutylxanthine, 1-methyl-3-isobutylxanthine], the “cell phenotype (morphology)” value [2] is reported as “retain a flat fibroblastic phenotype”.
